Reference: article PMC7301697 (Journal of Enzyme Inhibition and Medicinal Chemistry, 2020)

Tests used:
[1] = target: T1, Polyphosphate kinase 1 (PPK1) (Escherichia coli, UniProt P0A7B1); assay: SPR single-concentration response at […]; type: binding
T1 sequence (P0A7B1 2-688): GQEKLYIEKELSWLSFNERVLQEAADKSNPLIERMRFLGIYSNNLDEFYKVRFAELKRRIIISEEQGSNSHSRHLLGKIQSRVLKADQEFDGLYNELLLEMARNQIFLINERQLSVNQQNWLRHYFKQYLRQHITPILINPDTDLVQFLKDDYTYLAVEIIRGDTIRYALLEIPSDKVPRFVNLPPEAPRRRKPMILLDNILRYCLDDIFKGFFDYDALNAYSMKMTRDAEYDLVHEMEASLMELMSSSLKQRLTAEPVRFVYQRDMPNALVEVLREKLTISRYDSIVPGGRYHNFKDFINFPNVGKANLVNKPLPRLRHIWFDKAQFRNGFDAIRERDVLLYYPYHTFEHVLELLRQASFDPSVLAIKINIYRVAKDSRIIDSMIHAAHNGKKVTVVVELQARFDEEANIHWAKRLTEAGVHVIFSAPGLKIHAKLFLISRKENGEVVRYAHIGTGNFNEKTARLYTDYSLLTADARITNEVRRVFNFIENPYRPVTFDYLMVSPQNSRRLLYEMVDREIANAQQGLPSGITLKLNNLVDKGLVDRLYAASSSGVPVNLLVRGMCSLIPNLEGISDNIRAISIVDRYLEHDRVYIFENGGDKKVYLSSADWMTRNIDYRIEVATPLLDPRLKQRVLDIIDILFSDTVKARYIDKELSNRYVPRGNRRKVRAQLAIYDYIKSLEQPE

[2] = target: T1, Polyphosphate kinase 1 (PPK1); assay: SPR; type: binding

| SPR single-concentration response at 100 μM (positive control) [1] | Kd [2] | SMILES |
| --- | --- | --- |
| 3.06 100RU/Da |  | COc1cc([C@@H]2c3cc4c(cc3[C@@H](O[C@@H]3O[C@@H]5CO[C@@H](C)O[C@H]5[C@H](O)[C@H]3O)[C@H]3COC(=O)[C@H]23)OCO4)cc(OC)c1O [Etoposide] |
|  | 85.8 µM | O=[N+]([O-])c1ccc2nc(-c3ccc(Cl)cc3)[nH]c2c1 [compound 8, 8] |
|  | 84.6 µM | Cc1ccc(C(=O)Nc2ccc(Cl)cc2)cc1C(F)(F)F [compound 17, 17] |
